Assay results from patent US20170143661A1 (priority 2015, published 2017).

Assays:
Parameters in all cases: species or system broiler birds
Settings in all cases: in vivo
Interleukin-6 (IL-6) = tested on: Interleukin-6 (IL-6)
[1] = tested on: Newcastle disease virus, NDV
[2] = tested on: Newcastle disease virus, NDV; remark: listed apart in the source
Interferon-γ (IFN-γ) = tested on: Interferon-γ (IFN-γ)
[3] = tested on: Newcastle disease virus, NDV; remark: listed apart in the source
[4] = tested on: Newcastle disease virus, NDV; remark: listed apart in the source

Which results are given for `CCC(=O)[O-].CCC(=O)[O-].CCC(=O)[O-].[Cr+3]` [chromium propionate]?
post-challenge responses (serum cytokine) (Interleukin-6 (IL-6)): increasing trend; serum Interleukin-6 (IL-6) levels (Interleukin-6 (IL-6)): Significantly higher; daily mortality percentages [1]: lower; mortality by day 15 post-challenge [1]: 100%; onset of mortality [1]: delayed; serum antibody titers (HI) [2]: enhanced significantly; serum Interferon-γ (IFN-γ) levels (Interferon-γ (IFN-γ)): Significantly higher; mean viral titer in different organs [3]: lower as compared to the control; serum antibody titers (ELISA) [4]: enhanced significantly
